The test system of test [1] is caMC4R. Briefly: Intracellular cAMP signaling (radioimmunoassay). The format is cell-based, topmouth culter (Culter alburnus). To be noted: for stimulation of intracellular cAMP, in words / EC50 / Rmax (cAMP): HEK293T cells; for EC50: cAMP RIA; for EC50 / Rmax (cAMP): mean ± SEM of at least three independent experiments; for Rmax (cAMP): hMC4R = 100.
Protocol: The medium contained Dulbecco's Modified Eagle's medium (DMEM) (Invitrogen, Carlsbad, CA, USA), 10% newborn calf serum, 10 mM HEPES, 50 μg/mL of gentamicin, 0.25 μg/mL of amphotericin B, 100 μg/mL of streptomycin and 100 IU/mL of penicillin. Cells were plated into 24-well or 6-well plates (Corning, NY, USA) pre-coated with 0.1% gelatin.
Radioimmunoassay for intracellular cAMP was performed as described previously ([47], [48]).
Prism 8.3 software (GraphPad, San Diego, CA, USA) was used to calculate parameters including maximal binding (Bmax), IC50, maximal response (Rmax), basal activity, and EC50. […] Ligand binding, cAMP, flow cytometry parameters of caMC4R regulated by MRAP2s and ERK1/2 signaling were analyzed for significance of differences by one-way ANOVA.
HEK293T cells were transiently transfected with MC4R plasmids. […] Data are mean ± SEM from triplicate measurements within one experiment. All experiments were performed at least three times independently.
Test [2] addresses caMC4R. Briefly: Competitive ligand binding (125I-NDP-MSH displacement). To be noted: displacement of 125I-NDP-MSH; for IC50: HEK293T cells, mean ± SEM of at least three independent experiments. On the technique in general: Loss of bound radioactivity is the signal in a displacement assay; it reports binding, not function.

Marks after values point to notes of the source that are not given here.

This is an account of results in paper PMC7456811, “Regulation of Melanocortin-4 Receptor Pharmacology by Two Isoforms of Melanocortin Receptor Accessory Protein 2 in Topmouth Culter (Culter alburnus)” (Frontiers in Endocrinology, 2020).

As to `CSCC[C@H](NC(=O)[C@H](CCCNC(=N)N)NC(=O)[C@H](Cc1ccc(O)cc1)NC(=O)[C@@H]1CCCN1C(=O)CNC(=O)[C@H](CCC(=O)O)NC(=O)[C@H](CC(=O)O)NC(=O)[C@H](CCCCN)NC(=O)[C@H](CCCCN)NC(=O)[C@H](CCC(=O)O)NC(=O)[C@H](C)N)C(=O)N[C@@H](CCC(=O)O)C(=O)N[C@@H](Cc1c[nH]cn1)C(=O)N[C@@H](Cc1ccccc1)C(=O)N[C@@H](CCCNC(=N)N)C(=O)N[C@@H](Cc1c[nH]c2ccccc12)C(=O)NCC(=O)N[C@@H](CO)C(=O)N1CCC[C@H]1C(=O)N1CCC[C@H]1C(=O)N[C@@H](CCCCN)C(=O)N[C@@H](CC(=O)O)C(=O)O` [β-MSH, β-melanocyte-stimulating hormone], in the test on caMC4R [1] (caMC4R), the “stimulation of intracellular cAMP, in words” value (shortened to “stimulation”) was “dose-dependently increased intracellular cAMP levels”; the EC50 was found to be 5.76 ± 1.62 nM; the “Rmax (cAMP)” value is recorded as 167.74 ± 27.91%. For the same compound, at caMC4R [2], the IC50 was determined as 442 ± 65.4 nM and the “binding affinity, in words” value is recorded as “significantly higher affinity to β-MSH than hMC4R”.

For `O=C(N[C@H](Cc1ccc(Cl)cc1)C(=O)N1CCC(Cn2cncn2)(C2CCCCC2)CC1)[C@H]1Cc2ccccc2CN1` [THIQ, N-[(3R)-1,2,3,4-Tetrahydroisoquinolinium-3-ylcarbonyl]-(1R)-1-(4-chlorobenzyl)-2-[4-cyclohexyl-4-(1H-1,2,4-triazol-1-ylmethyl)piperidin-1-yl]-2-oxoethylamine], in the test on caMC4R [1] (caMC4R versus hMC4R, cAMP), the “EC50 and Rmax compared with hMC4R, in words” value was “EC50 was significantly increased and Rmax was significantly decreased”. In addition, in the test with caMC4R [1] (caMC4R), the “stimulation” value is “dose-dependently increased intracellular cAMP levels”; the concentration for a half-maximal effect (EC50) was 75.7 ± 10.6 nM; the “Rmax (cAMP)” value is recorded as 39.73 ± 1.37^b %. In addition, in the test with caMC4R [1] (caMC4R, concluded from binding and cAMP data), the “allosteric agonism, in words” value is “not an allosteric agonist at caMC4R”. Besides, in the test with caMC4R [2], the “binding affinity, in words” value is “able to displace the ^125I-NDP-MSH bound with caMC4R”.

Consider [Nle^4, D-Phe^7]-α-MSH [NDP-MSH], for which, in the test with caMC4R [1] (caMC4R), the “stimulation” value is “dose-dependently increased intracellular cAMP levels”; it took 0.44 ± 0.24 nM to reach a half-maximal effect (EC50); the “Rmax (cAMP)” value is 84.48 ± 8.28%. The compound further showed an IC50 at caMC4R [2] of 4.87 ± 1.8 nM.

Usually EC50 stands for the concentration giving half of the maximal effect. Broadly, the IC50 is the concentration needed to halve the response being measured.
